Assay results published in US20240239772A1, “PROTEASE INHIBITORS AND METHODS OF USE” (The Cleveland Clinic Foundation, priority 2021, published 2024).

What follows are compounds tested against SARS-CoV-2 3CLpro (Severe acute respiratory syndrome coronavirus 2 (2019-nCoV) (SARS-CoV-2), UniProt P0DTD1) (assay: biochemical). Details: read-out: SARS-CoV-2 IC50.
Format: biochemical

| Compound | IC50 [nM] |
| --- | --- |
| O=C(Cn1nnc2ccccc21)N(CC1CCCC1)c1ccc(-c2ccc[nH]c2=O)cc1 [Compound 68, 2-(1H-benzo[d][1,2,3]triazol-1-yl)-N-(cyclopentylmethyl)-N-(4-(2-oxo-1,2-dihydropyridin-3-yl)phenyl)acetamide] | 1300 |
| NC(=O)Cc1ccc(N(Cc2cc(F)cc(F)c2)C(=O)Cn2nnc3ccccc32)cc1 [Compound 94, 2-[4-[[2-(benzotriazol-1-yl)acetyl]-[(3,5-difluorophenyl)methyl]amino]phenyl]acetamide] | 670 |
| O=C1C=C(c2ccc(N(Cc3cc(F)cc(F)c3)C(=O)Cn3nnc4ccccc43)cc2)CN1 [Compound 109, 2-(benzotriazol-1-yl)-N-[(3,5-difluorophenyl)methyl]-N-[4-(5-oxo-1,2-dihydropyrrol-3-yl)phenyl]acetamide] | 340 |
| O=C(Cn1nnc2ccccc21)N(Cc1cncc(F)c1)c1ccc(C2=CCNC2)cc1 [Compound 122, 2-(benzotriazol-1-yl)-N-[4-(2,5-dihydro-1H-pyrrol-3-yl)phenyl]-N-[(5-fluoro-3-pyridyl)methyl]acetamide] | 1500 |
| O=C1CNCCN1c1ccc(N(Cc2cc(F)cc(F)c2)C(=O)Cn2nnc3ccccc32)cc1 [Compound 101, 2-(benzotriazol-1-yl)-N-[(3,5-difluorophenyl)methyl]-N-[4-(2-oxopiperazin-1-yl)phenyl]acetamide] | 3400 |
| Cc1[nH]ncc1-c1ccc(N(Cc2cccc(Cl)c2)C(=O)Cn2nnc3ccccc32)cc1 [Compound 69, 2-(1H-benzo[d][1,2,3]triazol-1-yl)-N-(3-chlorobenzyl)-N-(4-(5-methyl-1H-pyrazol-4-yl)phenyl)acetamide] | 380 |
| O=C(O)Cc1ccc(N(Cc2cc(F)cc(F)c2)C(=O)Cn2nnc3ccccc32)cc1 [Compound 93, 2-[4-[[2-(benzotriazol-1-yl)acetyl]-[(3,5-difluorophenyl)methyl]amino]phenyl]acetic acid] | 23000 |
| N#Cc1ccc(N(Cc2cc(F)cc(F)c2)C(=O)Cn2nnc3ccccc32)cc1 [Compound 102, 2-(benzotriazol-1-yl)-N-(4-cyanophenyl)-N-[(3,5-difluorophenyl)methyl]acetamide] | 4700 |
| O=C(Cn1nnc2ccccc21)N(Cc1cccc(F)c1F)c1ccc(-c2c[nH]cn2)cc1 [Compound 81, 2-(benzotriazol-1-yl)-N-[(2,3-difluorophenyl)methyl]-N-[4-(1H-imidazol-4-yl)phenyl]acetamide] | 400 |
| Cn1cnc(-c2ccc(N(Cc3ccsc3)C(=O)Cn3nnc4ccccc43)cc2)c1 [Compound 20, 2-(Benzotriazol-1-yl)-N-[4-(1-methylimidazol-4-yl)phenyl]-N-(3-thienylmethyl)acetamide] | 9550 ± 990 |
| O=C1CC(c2ccc(N(Cc3cc(F)cc(F)c3)C(=O)Cn3nnc4ccccc43)cc2)CN1 (stereo not shown) [Compound 115, 2-(benzotriazol-1-yl)-N-[(3,5-difluorophenyl)methyl]-N-[4-(5-oxopyrrolidin-3-yl)phenyl]acetamide] | 240 |
| Cc1cc(Cl)cc(CN(C(=O)Cn2nnc3ccccc32)c2ccc(-c3cccnc3)cc2)c1 [Compound 33, 2-(Benzotriazol-1-yl)-N-[(3-chloro-5-methyl-phenyl)methyl]-N-[4-(3-pyridyl)phenyl]acetamide] | 312 ± 73 |
| COc1cc(F)cc(CN(C(=O)Cn2nnc3ccccc32)c2ccc(-c3c[nH]cn3)cc2)c1 [Compound 111, 2-(benzotriazol-1-yl)-N-[(3-fluoro-5-methoxy-phenyl)methyl]-N-[4-(1H-imidazol-4-yl)phenyl]acetamide] | 69 |
| O=C(Cn1nnc2ccccc21)N(CC1COC1)c1ccc(-c2cccnc2)cc1 [Compound 70, 2-(1H-benzo[d][1,2,3]triazol-1-yl)-N-(oxetan-3-ylmethyl)-N-(4-(pyridin-3-yl)phenyl)acetamide] | 32000 |
| COC(=O)Cc1ccc(N(Cc2cc(F)cc(F)c2)C(=O)Cn2nnc3ccccc32)cc1 [Compound 92, methyl 2-[4-[[2-(benzotriazol-1-yl)acetyl]-[(3,5-difluorophenyl)methyl]amino]phenyl]acetate] | 1800 |
| Cc1ccc(CN(C(=O)Cn2nnc3ccccc32)c2ccc(-c3cccnc3)cc2)cc1Cl [Compound 71, 2-(1H-benzo[d][1,2,3]triazol-1-yl)-N-(3-chloro-4-methylbenzyl)-N-(4-(pyridin-3-yl)phenyl)acetamide] | > 50000 |
| O=C(Cn1nnc2ccccc21)N(Cc1cncc(Cl)c1)c1ccc(-c2cccnc2)cc1 [Compound 34, 2-(Benzotriazol-1-yl)-N-[(5-chloro-3-pyridyl)methyl]-N-[4-(3-pyridyl)phenyl]acetamide] | 540 ± 70 |
| CC(=O)NCc1ccc(N(Cc2cc(F)cc(F)c2)C(=O)Cn2nnc3ccccc32)cc1 [Compound 123, N-[4-(acetamidomethyl)phenyl]-2-(benzotriazol-1-yl)-N-[(3,5-difluorophenyl)methyl]acetamide] | 780 |
| O=C(Cn1nnc2ccccc21)N(Cc1ccc(F)c(Cl)c1)c1ccc(-c2cccnc2)cc1 [Compound 29, 2-(Benzotriazol-1-yl)-N-[(3-chloro-4-fluoro-phenyl)methyl]-N-[4-(3-pyridyl)phenyl]acetamide] | 8530 ± 1820 |

| Compound | IC50 [nM] |
| --- | --- |
| O=C(Cn1nnc2ccccc21)N(Cc1cc(F)cc(F)c1)c1ccc(-c2c[nH]nn2)cc1 [Compound 105, 2-(benzotriazol-1-yl)-N-[(3,5-difluorophenyl)methyl]-N-[4-(1H-triazol-4-yl)phenyl]acetamide] | 180 |
| O=C(Cn1nnc2ccccc21)N(Cc1cc(F)cc(F)c1)c1ccc(C2CCNC2)cc1 (stereo not shown) [Compound 108, 2-(benzotriazol-1-yl)-N-[(3,5-difluorophenyl)methyl]-N-(4-pyrrolidin-3-ylphenyl)acetamide] | 210 |
| O=C(Cn1nnc2ccccc21)N(CC1CCCC1)c1ccc(-c2cccnc2)cc1 [Compound 25, 2-(1H-Benzo[d][1,2,3]triazol-1-yl)-N-(cyclopentylmethyl)-N-(4-(pyridin-3-yl)phenyl)acetamide] | 1160 ± 190 |
| O=C(Cn1nnc2ccccc21)N(Cc1cc(F)cc(F)c1)c1ccc(C2CCNCC2)cc1 [Compound 90, 2-(benzotriazol-1-yl)-N-[(3,5-difluorophenyl)methyl]-N-[4-(4-piperidyl)phenyl]acetamide] | 1700 |
| O=C(Cn1nnc2ccccc21)N(Cc1cc(F)cc(F)c1)c1ccc(CCO)cc1 [Compound 99, 2-(benzotriazol-1-yl)-N-[(3,5-difluorophenyl)methyl]-N-[4-(2-hydroxyethyl)phenyl]acetamide] | 460 |
| O=C(Cn1nnc2ccccc21)N(Cc1ccc(F)cn1)c1ccc(-c2c[nH]cn2)cc1 [Compound 103, 2-(benzotriazol-1-yl)-N-[(5-fluoro-2-pyridyl)methyl]-N-[4-(1H-imidazol-4-yl)phenyl]acetamide] | 9500 |
| O=C(Cn1nnc2ccccc21)N(Cc1cc(F)cc(F)c1)c1ccc(-c2c[nH]cn2)cc1 [Compound 78, 2-(benzotriazol-1-yl)-N-[(3,5-difluorophenyl)methyl]-N-[4-(1H-imidazol-4-yl)phenyl]acetamide] | 95 |
| O=C(Cn1nnc2ccccc21)N(Cc1cc(F)cc(Cl)c1)c1ccc(C2CNC2)cc1 [Compound 121, N-[4-(azetidin-3-yl)phenyl]-2-(benzotriazol-1-yl)-N-[(3-chloro-5-fluoro-phenyl)methyl]acetamide] | 100 |
| O=C(Cn1nnc2ccccc21)N(Cc1cccc(F)c1)c1ccc(-c2c[nH]cn2)cc1 [Compound 82, 2-(benzotriazol-1-yl)-N-[(3-fluorophenyl)methyl]-N-[4-(1H-imidazol-4-yl)phenyl]acetamide] | 360 |
| O=C(Cn1ccnn1)N(Cc1cc(F)cc(Cl)c1)c1ccc(-c2c[nH]cn2)cc1 [Compound 112, N-[(3-chloro-5-fluoro-phenyl)methyl]-N-[4-(1H-imidazol-4-yl)phenyl]-2-(triazol-1-yl)acetamide] | 410 |
| O=C(Cn1nnc2ccccc21)N(Cc1cccc(Cl)c1F)c1ccc(-c2c[nH]cn2)cc1 [Compound 84, 2-(benzotriazol-1-yl)-N-[(3-chloro-2-fluoro-phenyl)methyl]-N-[4-(1H-imidazol-4-yl)phenyl]acetamide] | 230 |
| CC(C)CN(C(=O)Cn1nnc2ccccc21)c1ccc(-c2c[nH]cn2)cc1 [Compound 89, 2-(benzotriazol-1-yl)-N-[4-(1H-imidazol-4-yl)phenyl]-N-isobutyl-acetamide] | 680 |
| CC(c1cc(F)cc(F)c1)N(C(=O)Cn1nnc2ccccc21)c1ccc(-c2c[nH]cn2)cc1 (stereo not shown) [Compound 88, 2-(benzotriazol-1-yl)-N-[1-(3,5-difluorophenyl)ethyl]-N-[4-(1H-imidazol-4-yl)phenyl]acetamide] | 160 |
| O=C(Cn1nnc2ccccc21)N(Cc1ccnc(C(F)(F)F)c1)c1ccc(-c2c[nH]cn2)cc1 [Compound 95, 2-(benzotriazol-1-yl)-N-[4-(1H-imidazol-4-yl)phenyl]-N-[[2-(trifluoromethyl)-4-pyridyl]methyl]acetamide] | 2900 |
| O=C(Cn1nnc2ccccc21)N(Cc1cc(F)cc(F)c1)c1ccc(C2=CCNC2)cc1 [Compound 91, 2-(benzotriazol-1-yl)-N-[(3,5-difluorophenyl)methyl]-N-[4-(2,5-dihydro-1H-pyrrol-3-yl)phenyl]acetamide] | 130 |
| O=C(Cn1ccnn1)N(Cc1cccc(Cl)c1)c1ccc(-c2cn[nH]c2)cc1 [Compound 113, N-[(3-chlorophenyl)methyl]-N-[4-(1H-pyrazol-4-yl)phenyl]-2-(triazol-1-yl)acetamide] | 8200 |
| O=C(Cn1nnc2ccccc21)N(Cc1cscn1)c1ccc(-c2cccnc2)cc1 [Compound 27, 2-(Benzotriazol-1-yl)-N-[4-(3-pyridyl)phenyl]-N-(thiazol-4-ylmethyl)acetamide] | 1590 ± 440 |
| O=C(Cn1nnc2ccccc21)N(Cc1cncc(F)c1)c1ccc(-c2c[nH]cn2)cc1 [Compound 97, 2-(benzotriazol-1-yl)-N-[(5-fluoro-3-pyridyl)methyl]-N-[4-(1H-imidazol-4-yl)phenyl]acetamide] | 130 |
